Source: US20210085807A1, “METAL-BINDING PEPTIDE AND USE THEREOF” (The University of Tokyo, priority 2018, published 2021)

Test: Adsorption on stent in plasma, fluorescence microscopy
Format: binding
Details: stent immersed in human plasma 37° C., 30 minutes, then 0.5 mM peptide or PEG-peptide conjugate solution 37° C.
Procedure: Next, in order to analyze the binding ability of the peptide of the present invention to a stent existing in plasma, whether or not the peptide of the present invention binds to a stent that has been allowed to come into contact with plasma was examined.
That is, a stent was immersed in human plasma (37° C., 30 minutes), and was then removed from the plasma. The stent was then immersed in each peptide solution (0.5 mM) and a PEG-peptide conjugate solution (0.5 mM) (37° C., 30 minutes). Thereafter, the stent was sufficiently rinsed with PBS, and was then observed under a fluorescence microscope.
FIG. 15 and FIG. 16 show the fluorescence microscopic images of the stents, and the observed fluorescence intensities are summarized in FIG. 17. The method of digitizing the fluorescence intensity is as described above.

binding to the surface of the stent after contact with human plasma: does not bind to a stent
Sequence: LTPHKHHKHLHA [YT07]
